Measured values as given in US20010003780A1, “Retinoid antagonists and uses thereof” (priority 1997, published 2001).

Test system: trauma-induced caecal adhesion in rats
Test: trauma-induced caecal adhesion model in rats
Assay type: in vivo, rat
Description: Models of peritoneal adhesions induced by surgical trauma have been used to predict the clinical activity of a number of marketed anti-adhesion barrier devices. One such model is the trauma-induced caecal adhesion model in rats. A representative retinoid antagonist compound of the present invention, 4-{{(E)-(5,6-dihydro-5,5-dimethyl-8-phenyl)-2-naphthalenyl]vinyl]benzoic acid of the formula [drawing 49]
Adult female Wistar rats were used in our studies. The trauma induction was carried out using aseptic conditions in animals anesthetized with a mixture of Ketamine (100 mg/kg) and Rompun (10 mg/kg) given IP. A 2 cm midline abdominal incision was made and the caecum was exteriorized. Both sides of the caecum were abraded with a dry gauze until there was evidence of punctate bleeding. After replacing the organ in the abdominal cavity, the incision was closed. Trauma to the caecum produces fibrous scar tissue or adhesions to adjacent organs, peritoneal wall, or the omentum. Animals were treated with test compound orally or by intravenous injection or intra-abdominally by direct instillation into the peritoneal cavity. Oral treatments were administered once daily for up to 7 days. Intra-abdominal treatments were applied once post-trauma and just prior to wound closure.
On the seventh postoperative day, the animals were sacrificed and the peritoneal cavity was exposed and examined for adhesions. Three criteria that were used to evaluate the adhesions are: severity of the adhesions, extent or area of the ceacum involved with adhesions and the number of adhesions formed in each animal. Statistical analysis of the data was performed using students' T test. The following scoring system was used:
The test compound described above administered by the intra-abdominal route was compared to some other representative retinoid antagonists of the present invention. A single dose of compound in 3 ml volume was instilled over the traumatized caecum and abdominal cavity prior to closing the incision. Seven days later the animals were sacrificed and the abdominal cavity was examined for adhesions to the caecum.

[1] = administered orally for 7 days, 10 and 15 mg/kg, compared to the vehicle control (FIG. 1)

SMILES | effect on trauma induced adhesions (number, severity and extent of caecal adhesions) (orally administered, at twice the dose of the test compound (Table 1)) | number of adhesions per animal [1] | severity of adhesions per animal [1] | severity of caecal adhesions (single intra-abdominal application at 5 mg in 3 ml, examined seven days later (Table 2)) | number of adhesions formed (single intra-abdominal application at 5 mg in 3 ml, examined seven days later, compared to the vehicle control (Table 2))
CC1=C(/C=C/C(C)=C/C=C/C(C)=C/C(=O)O)C(C)(C)CCC1 [All-trans retinoic acid, all-trans retinoic acid, reference compound] | no significant effect | – | – | – | –
CC1(C)CC=C(c2ccccc2)c2cc(/C=C/c3ccc(C(=O)O)cc3)ccc21 [compound A, 4-{{(E)-(5,6-dihydro-5,5-dimethyl-8-phenyl)-2-naphthalenyl]vinyl]benzoic acid] | – | significantly reduced | significantly reduced | effectively reduced | significantly reduced
